According to patent publication US11639348B2, “Compositions and methods for neuraminidase detection and quantification” (priority 2018, dated 2023):
“Also recorded” adds a separate entry of the source.

Legend:
NA activity of virus = format: biochemical
[1] = system: CC(=O)NC1C(NC(=N)N)C(F)C(Oc2c(F)cc3c(C)cc(=O)oc3c2F)(C(=O)O)OC1[C@H](O)[C@H](O)CO; experiment: purified protein, by the assay type; details: pH 7.6; 30.0 °C
[2] = target: influenza N2 subtype neuraminidase from A/Hong Kong/1/68 (H3N2) (Influenza A virus, UniProt Q91MA2); format: biochemical, influenza A/Hong Kong/1/68 (H3N2); details: pH 7.6
Sequence of influenza N2 subtype neuraminidase from A/Hong Kong/1/68 (H3N2) (Q91MA2 whole entry, looked up): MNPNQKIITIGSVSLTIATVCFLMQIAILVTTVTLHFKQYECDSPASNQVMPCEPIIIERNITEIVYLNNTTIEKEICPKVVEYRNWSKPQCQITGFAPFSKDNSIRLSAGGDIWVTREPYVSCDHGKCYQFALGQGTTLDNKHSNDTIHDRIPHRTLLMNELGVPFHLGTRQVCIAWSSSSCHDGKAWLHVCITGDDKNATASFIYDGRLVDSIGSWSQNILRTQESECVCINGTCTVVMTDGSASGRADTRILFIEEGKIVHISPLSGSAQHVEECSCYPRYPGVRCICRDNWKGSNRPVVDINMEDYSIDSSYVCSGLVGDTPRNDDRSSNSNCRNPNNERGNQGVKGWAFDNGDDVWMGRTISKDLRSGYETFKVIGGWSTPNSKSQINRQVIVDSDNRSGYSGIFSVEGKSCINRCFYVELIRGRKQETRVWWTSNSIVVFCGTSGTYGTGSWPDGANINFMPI

[3] = target: sialidase from Micromonospora viridifaciens (NedA) (Micromonospora viridifaciens, UniProt Q02834); format: biochemical
Sequence of sialidase from Micromonospora viridifaciens (NedA) (Q02834 38-647): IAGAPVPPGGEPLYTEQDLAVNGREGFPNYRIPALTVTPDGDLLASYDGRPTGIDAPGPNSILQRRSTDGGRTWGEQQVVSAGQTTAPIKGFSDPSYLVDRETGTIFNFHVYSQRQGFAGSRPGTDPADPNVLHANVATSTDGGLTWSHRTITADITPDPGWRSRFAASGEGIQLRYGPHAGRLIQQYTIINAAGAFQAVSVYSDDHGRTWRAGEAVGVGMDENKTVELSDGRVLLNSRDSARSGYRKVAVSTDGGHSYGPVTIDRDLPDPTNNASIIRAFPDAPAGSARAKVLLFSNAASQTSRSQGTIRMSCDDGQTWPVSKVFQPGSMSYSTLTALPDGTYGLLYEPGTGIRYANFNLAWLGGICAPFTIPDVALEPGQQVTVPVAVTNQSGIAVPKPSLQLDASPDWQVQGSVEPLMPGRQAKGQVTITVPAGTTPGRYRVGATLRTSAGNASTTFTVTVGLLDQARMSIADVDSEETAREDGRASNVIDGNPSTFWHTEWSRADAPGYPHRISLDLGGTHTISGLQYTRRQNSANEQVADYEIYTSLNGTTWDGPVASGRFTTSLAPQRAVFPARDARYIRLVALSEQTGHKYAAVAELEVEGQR

[4] = Spontaneous hydrolysis of stock solution
influenza virus NAs = format: biochemical
influenza B NAs = format: biochemical
[5] = target: NA of A/WS/33 (H1N1) influenza virus (Influenza A virus, UniProt P03470); format: biochemical, influenza A/WS/33 (H1N1)
Sequence of NA of A/WS/33 (H1N1) influenza virus (P03470 whole entry, looked up): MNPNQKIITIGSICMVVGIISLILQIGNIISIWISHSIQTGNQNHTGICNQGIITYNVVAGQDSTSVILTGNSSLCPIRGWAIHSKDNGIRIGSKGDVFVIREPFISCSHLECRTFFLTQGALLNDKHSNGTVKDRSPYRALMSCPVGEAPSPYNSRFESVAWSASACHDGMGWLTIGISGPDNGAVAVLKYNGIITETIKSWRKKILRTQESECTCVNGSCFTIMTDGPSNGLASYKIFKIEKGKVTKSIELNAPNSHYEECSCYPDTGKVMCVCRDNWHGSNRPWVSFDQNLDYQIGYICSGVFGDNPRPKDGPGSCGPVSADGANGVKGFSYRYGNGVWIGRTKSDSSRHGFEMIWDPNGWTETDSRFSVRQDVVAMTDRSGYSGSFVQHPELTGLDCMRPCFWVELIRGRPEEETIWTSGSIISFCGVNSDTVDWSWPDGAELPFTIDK

[6] = system: A/Brisbane/59/2007 H1N1 NA; format: biochemical, influenza A/Brisbane/59/2007 H1N1; details: pH 7.6
[7] = system: A/California/07/2009 H1N1 NA; format: biochemical, influenza A/California/07/2009 H1N1; details: pH 7.6
[8] = system: A/Washington/10/2008 H1N1 NA; format: biochemical, influenza A/Washington/10/2008 H1N1; details: pH 7.6
B/Florida/04/2006 NA = format: biochemical, influenza B/Florida/04/2006; details: pH 7.6
B/Hong Kong/05/1972 NA = format: biochemical, influenza B/Hong Kong/05/1972; details: pH 7.6

O=C1CCO1 [β-propiolactone]
effect on NA activity compared to live virus (NA activity of virus): significantly reduced NA activities; also recorded: dramatically reduced NA activities

(Influenza A virus (A/Hong Kong/1/1968(H3N2)))
Km [1]: 45.6 µM
kcat [1]: 76.7 s⁻¹
kcat/Km [1]: 1.68e+06 M⁻¹ s⁻¹

CC(=O)NC1C(N)C(F)C(Oc2c(F)cc3c(C)cc(=O)oc3c2F)(C(=O)O)OC1[C@H](O)[C@H](O)CO (stereo partly drawn) [compound 2, 5-Acetamido-4-amino-3-fluoro-3,4,5-trideoxy-2α-(4-methyl-6,8-difluoromethylumbelliferyl)-D-glycero-D-galactononulopyranosylnoic acid]
burst and turnover on titration of N2 [2]: produced a burst, but significant turnover was still observed

nonyl phenoxypolyethoxylethanol [NP40]
effect on NA activity compared to live virus (NA activity of virus): did not affect the NA activity; also recorded: did not affect the NA activities

CC(=O)NC1C(O)C(F)C(Oc2c(F)cc3c(C)cc(=O)oc3c2F)(C(=O)O)OC1[C@H](O)[C@H](O)CO (stereo partly drawn) [compound 1, 5-Acetamido-3-fluoro-3,5-dideoxy-2α-(4-methyl-6,8-difluoromethylumbelli-feryl)-D-glycero-D-galactononulopyranosylnoic Acid]
NedA concentration down to which burst size vs concentration is linear [3]: ≤ 0.7 nM
fluorescence response on titration of NedA (burst and turnover) ([3]; pH 7.6): a classical burst phase of increased fluorescence was observed, followed by a steady-state phase
burst and turnover on titration of N2 [2]: a burst was indeed seen, but significant turnover was also observed
stability of stock solution [4]: undergoes slow spontaneous hydrolysis

CC(=O)NC1C(NC(=N)N)C(F)C(Oc2c(F)cc3c(C)cc(=O)oc3c2F)(C(=O)O)OC1[C@H](O)[C@H](O)CO (stereo partly drawn) [compound 3, 5-Acetamido-4-guanidine-3-fluoro-3,4,5-trideoxy-2α-(4-methyl-6,8-difluoromethylumbelliferyl)-D-glycero-D-galactononulopyranosylnoic acid]
response on incubation with GH33 sialidase NedA [3]: no significant response
burst and turnover on titration of N2 [2]: no detectable turnover at all, while a rapid initial burst was observed
time to reach plateau of titration (influenza virus NAs): about 30 min
time to inactivation (influenza B NAs): within several seconds
NA concentration down to which reliable data are given [5]: approximately 200 pM
burst, F2Mu released [5]: 27 nM
initial concentration of NA in the original virus sample [5]: 1.08 µM
Km [6]: 41.1 µM
kcat [6]: 32.6 s⁻¹
Km [7]: 31.9 µM
kcat [7]: 76.4 s⁻¹
Km [8]: 62.2 µM
kcat [8]: 63.3 s⁻¹
Km (B/Florida/04/2006 NA): 28.6 µM
kcat (B/Florida/04/2006 NA): 26.7 s⁻¹
Km (B/Hong Kong/05/1972 NA): 29.6 µM
kcat (B/Hong Kong/05/1972 NA): 30.0 s⁻¹
